In article PMC1660542, “Structure-based discovery of inhibitors of the YycG histidine kinase: New chemical leads to combat Staphylococcus epidermidis infections” (BMC Microbiology, 2006):
In brackets after ≈: the same amount, converted by molar mass. Entries after “also recorded” stand apart in the source; their conditions may differ. Like-named read-outs stand apart in the source and are kept apart here.

What was measured:
[1] = tested on: S. epidermidis ATCC12228; assay: MIC assay (broth dilution in tubes, CLSI); assay type: cell-based, Staphylococcus epidermidis; settings: Staphylococcus epidermidis
Source text: (§1) Staphylococcus epidermidis ATCC12228 and RP62A strains were purchased from the American Type Culture Collection (ATCC, Manassas, USA). Staphylococcus aureus ATCC29213, Escherichia coli ATCC25922 and Pseudomonas aeruginosa ATCC27853 were kindly provided by Dr. Bijie Hu at Zhongshan Hospital (Shanghai, China). S. epidermidis strains se527, se886, se847, seG203, Streptococcus pyogenes strain 144, and Streptococcus mutans strain 128 were all clinical isolates from Zhongshan Hospital and Huashan Hospital (Shanghai, China). If not stated otherwise, S. epidermidis and S. aureus strains were grown at 37°C in tryptic soy broth (TSB, Oxoid) containing 0.25% glucose, E. coli and P. aeruginosa strains were grown at 37°C in Luria-Bertani (LB, Oxoid).
(§2) MIC assays for the antibacterial activities of the compounds were performed according to the broth micro-dilution (in tubes) method of the Clinical and Laboratory Standards Institute (CLSI) of America. The Minimal Bactericidal Concentration (MBC) was obtained by subculturing 100 μl from each negative (no visible bacterial growth) tube from the MIC assay, onto substance-free Mueller-Hinton agar plates. The plates were incubated at 37°C for 24 hours, and the MBC was defined as the lowest concentration of substance which produced subcultures growing no more than five colonies on each plate.

[2] = tested on: S. epidermidis RP62A; assay: MIC assay (broth dilution in tubes, CLSI); assay type: cell-based; settings: Staphylococcus epidermidis
Source text: as §1, §2

[3] = tested on: S. aureus ATCC29213; assay: MIC assay (broth dilution in tubes, CLSI); assay type: cell-based, Staphylococcus aureus; settings: for MIC: Staphylococcus aureus, S. aureus ATCC29213, read-out: Minimal inhibitory concentration (MIC)
Source text: as §1, §2

[4] = tested on: S. pyogenes 144; assay: MIC assay (broth dilution in tubes, CLSI); assay type: cell-based, Streptococcus pyogenes; settings: for MIC: Streptococcus pyogenes, S. pyogenes 144, read-out: Minimal inhibitory concentration (MIC)
Source text: as §1, §2

[5] = tested on: S. mutans 128; assay: MIC assay (broth dilution in tubes, CLSI); assay type: cell-based, Streptococcus mutans; settings: for MIC: Streptococcus mutans, S. mutans 128, read-out: Minimal inhibitory concentration (MIC)
Source text: as §1, §2

[6] = tested on: S. epidermidis ATCC12228; assay: Minimal bactericidal concentration (MBC) assay; assay type: cell-based; settings: Staphylococcus epidermidis
Protocol: as §2

[7] = tested on: S. epidermidis RP62A; assay: Minimal bactericidal concentration (MBC) assay; assay type: cell-based; settings: Staphylococcus epidermidis
Protocol: as §2

[8] = target: T1, YycG' protein (Staphylococcus epidermidis, UniProt Q8CU87); assay: Inhibition of YycG' ATPase activity / autophosphorylation (Kinase-Glo Luminescent Kinase Assay); assay type: biochemical; settings: 3 μM ATP; for IC50: 4 μg YycG' protein, read-out: IC50 for YycG'; for inhibition at 50 µM: compound 50 μM, 4 μg protein, read-out: Inhibition of YycG' phosphorylation (decrease of ATPase activity)
T1 construct: of YycG (370aa to 610aa) was amplified by PCR; His-tag (pET28a) (N); made in house; host or cells: E. coli BL21 (pET28a, pETYycG')
T1 sequence (Q8CU87 370-610): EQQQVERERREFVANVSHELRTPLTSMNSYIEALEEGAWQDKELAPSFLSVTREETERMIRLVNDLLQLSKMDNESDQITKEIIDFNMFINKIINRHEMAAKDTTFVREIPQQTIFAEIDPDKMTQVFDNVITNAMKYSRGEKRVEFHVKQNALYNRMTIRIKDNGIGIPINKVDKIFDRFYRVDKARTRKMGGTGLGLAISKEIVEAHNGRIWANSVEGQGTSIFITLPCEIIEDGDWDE
Protocol: The inhibitory activities of the compounds for the ATPase activity of the YycG' protein was measured using the Kinase-Glo™ Luminescent Kinase Assay (Promega, Madison, USA). Briefly, 4 μg YycG' protein was pre-incubated with a series of dilution of compounds in the reaction buffer (40 mM Tris [pH 7.5], 20 mM MgCl2, and 0.1 mg/ml BSA), at 25°C for 30 min. Then 3 μM ATP was added for another incubation of 30 min at 25°C, and Kinase-Glo™ Reagent was added to detect the rest amount of ATP, as recorded from luminescence measurements (RLU). In parallel, theYycG' protein with no addition of compounds was used as the control. The rate of inhibiting protein phosphorylation (Rp) by the compounds was calculated from equation 1:
Rp=RLU(YycG^′+compound+ATP+Reagent)−RLU(YycG^′+ATP+Reagent)/RLU(ATP+Reagent)−RLU(YycG^′+ATP+Reagent)×100% (1) MathType@MTEF@5@5@+=feaafiart1ev1aaatCvAUfKttLearuWrP9MDH5MBPbIqV92AaeXatLxBI9gBaebbnrfifHhDYfgasaacH8akY=wiFfYdH8Gipec8Eeeu0xXdbba9frFj0=OqFfea0dXdd9vqai=hGuQ8kuc9pgc9s8qqaq=dirpe0xb9q8qiLsFr0=vr0=vr0dc8meaabaqaciaacaGaaeqabaqabeGadaaakeaacqqGsbGudaWgaaWcbaGaeeiCaahabeaakiabg2da9maalaaabaGaeeOuaiLaeeitaWKaeeyvauLaeiikaGIaeeywaKLaeeyEaKNaee4yamMafe4raCKbauaacqGHRaWkcqqGJbWycqqGVbWBcqqGTbqBcqqGWbaCcqqGVbWBcqqG1bqDcqqGUbGBcqqGKbazcqGHRaWkcqqGbbqqcqqGubavcqqGqbaucqGHRaWkcqqGsbGucqqGLbqzcqqGHbqycqqGNbWzcqqGLbqzcqqGUbGBcqqG0baDcqGGPaqkcqGHsislcqqGsbGucqqGmbatcqqGvbqvcqGGOaakcqqGzbqwcqqG5bqEcqqGJbWycuqGhbWrgaqbaiabgUcaRiabbgeabjabbsfaujabbcfaqjabgUcaRiabbkfasjabbwgaLjabbggaHjabbEgaNjabbwgaLjabb6gaUjabbsha0jabcMcaPaqaaiabbkfasjabbYeamjabbwfavjabcIcaOiabbgeabjabbsfaujabbcfaqjabgUcaRiabbkfasjabbwgaLjabbggaHjabbEgaNjabbwgaLjabb6gaUjabbsha0jabcMcaPiabgkHiTiabbkfasjabbYeamjabbwfavjabcIcaOiabbMfazjabbMha5jabbogaJjqbbEeahzaafaGaey4kaSIaeeyqaeKaeeivaqLaeeiuaaLaey4kaSIaeeOuaiLaeeyzauMaeeyyaeMaee4zaCMaeeyzauMaeeOBa4MaeeiDaqNaeiykaKcaaiabgEna0kabigdaXiabicdaWiabicdaWiabcwcaLiaaxMaacaWLjaWaaeWaaeaacqaIXaqmaiaawIcacaGLPaaaaaa@A46C@
IC50 (the concentration of inhibition of 50% YycG' protein autophosphorylation) was obtained by using the Origin v7.0 software (OriginLab, Northampton, USA).

[9] = tested on: SrrB'; assay: Inhibition of SrrB' autophosphorylation (Kinase-Glo); assay type: biochemical, S. epidermidis; settings: compound 50 μM, 4 μg protein, 3 μM ATP
[10] = Cytotoxicity on Vero cell (MTT, Cell Proliferation Kit I); assay type: cell-based, African Green-monkey; settings: African green monkey, Vero cells, highest concentration tested 200 μM
Protocol: (§3) Cytotoxicity of the antibacterial compounds on cultured Vero cell was measured by using the Cell Proliferation Kit I (MTT) (Roche, Indianapolis, USA) according to the manufacturer's protocol. Addition of DMSO (1%) in the medium produced a slight cytotoxicity on Vero cell, which could easily be corrected for. Each assay was performed in quadruplicate and repeated three times. The results were converted to percentage of the control (cells only treated with 1% DMSO) and CC50 (concentrations that produce a 50% cytotoxicity effect on Vero cell) was calculated by the Origin v7.0 software (OriginLab, Northampton, USA). Hemolytic activities of the compounds were determined by using healthy human erythrocytes. The erythrocytes were washed three times in sterile saline and resuspended to 5% prior to the assay. […] Cells without compound treatment and cells with 1% Triton-100 treatment were used as 0% and 100% hemolysis controls, respectively. The cell suspensions were incubated for 1 hour at 37°C and centrifuged at 1000×g for 10 min. Volumes of 100 μl supernatants were transferred to another sterile plate and hemoglobin release from the cells was determined at 570 nm. […] The hemolysis assays were repeated twice.

[11] = Erythrocyte hemolysis assay; assay type: cell-based, human; settings: human, erythrocytes (5% suspension), 1 hour, 37°C;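 also: compounds tested at their MIC and at 4× MIC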
Protocol: as §3

[12] = tested on: S. epidermidis RP62A mature biofilm cells; assay: Killing biofilm cells of S. epidermidis (CFU count); assay type: cell-based, Staphylococcus epidermidis
Protocol: An overnight culture of S. epidermidis strain RP62A was diluted 1:100 in TSB containing 0.25% glucose, then 1 ml bacterial suspension was inoculated into the wells of sterile 12-well polystyrene microtiter plates (Falcon) incubated at 37°C for 24 h. The plates with mature biofilm were washed gently four times with sterile PBS before adding fresh TSB containing the various compounds at their MBC values, and incubated at 37°C for 24 h. The plates were washed again four times with sterile PBS, then the biofilm cells were scraped from the plate and resuspended in 1 ml PBS, and violently vortexed to disintegrate clumps of cells. Next, the suspension was diluted gradually with sterile PBS and subcultured onto substance-free Mueller-Hinton agar plates, incubated at 37°C for 24 h, and the colonies were counted. The fresh medium containing vancomycin at the MBC value and substance-free fresh medium served as the controls. The experiment was repeated three times.

[13] = ATCC12228, Table 2, as tested on S. epidermidis ATCC 12228, read-out: MICs
[14] = S. epidermidis ATCC12228 (non-biofilm-forming strain), read-out: Minimal inhibitory concentration (MIC)
[15] = S. epidermidis RP62A (biofilm-forming strain), read-out: Minimal inhibitory concentration (MIC)
[16] = S. epidermidis RP62A, read-out: Minimal bactericidal concentration (MBC)
[17] = at 4 × MIC (number in parenthesis)
[18] = at MIC for S. epidermidis ATCC12228

Compound: O=C(NNC(=O)c1c(Br)c(Br)c(Br)c(Br)c1C(O)O)c1cc(Cl)ccc1O [Compound 1]
- MIC [1, 13]: 50 µM
- MIC [1, 14]: 50 µM
- MIC [2, 15]: 50 µM
- Inhibitory effect against S. aureus [3]: inhibited the growth
- MIC [3]: 50 µM (≈ 32.6 µg/mL)
- Inhibitory effect against Streptococcus pyogenes [4]: inhibited the growth
- MIC [4]: 200 µM (≈ 130 µg/mL)
- MIC [5]: > 200 µM
- MBC [6]: 200 µM (≈ 130 µg/mL)
- MBC [7, 16]: 200 µM
- IC50 [8]: 48 µM
- inhibition at 50 µM [8]: 52%
- Inhibition of SrrB' phosphorylation [9]: 3%
- CC50 [10]: > 200 µM
- hemolysis at 1 h [11, 17]: < 0.1%
- hemolysis at 1 h [11, 18]: < 0.1%

Compound: Cc1ccc(C(O)O)cc1-c1ccc(/C=N/NC(=O)c2cc3c(ccc4ccccc43)o2)o1 [Compound 4]
- MIC [1, 13]: 12.5 µM
- MIC [1, 14]: 12.5 µM
- MIC [2, 15]: 12.5 µM
- MIC [3]: > 200 µM
- Inhibitory effect against Streptococcus pyogenes [4]: only active against S. pyogenes
- MIC [4]: 50 µM (≈ 22 µg/mL)
- MIC [5]: > 200 µM
- MBC [6]: 50 µM (≈ 22 µg/mL)
- MBC [7, 16]: 100 µM
- IC50 [8]: 13.5 µM
- inhibition at 50 µM [8]: 76%
- Inhibition of SrrB' phosphorylation [9]: 3%
- CC50 [10]: > 200 µM
- hemolysis at 1 h [11, 17]: 0.4%
- hemolysis at 1 h [11, 18]: 0.1%

Compound: CCOC(=O)C1=C(c2ccccc2)N=c2s/c(=C/c3ccc(-c4cccc(C(O)O)c4)o3)c(=O)n2C1c1ccc2c(c1)OCO2 (stereo not shown) [Compound 5]
- MIC [1, 13]: 6.25 µM
- MIC [1, 14]: 6.25 µM
- MIC [2, 15]: 6.25 µM
- Inhibitory effect against S. aureus [3]: effective
- MIC [3]: 6.25 µM (≈ 3.89 µg/mL)
- Inhibitory effect against Streptococcus pyogenes [4]: effective
- MIC [4]: 1.56 µM (≈ 0.971 µg/mL)
- Inhibitory effect against Streptococcus mutans [5]: effective
- MIC [5]: 6.25 µM (≈ 3.89 µg/mL)
- MBC [6]: 25 µM (≈ 15.6 µg/mL)
- MBC [7, 16]: 25 µM
- Reduction of the CFU of the biofilm cells ([12]; 24-hour-old biofilm, at MBC value, relative to untreated control): more than 100 fold
- IC50 [8]: 14 µM
- inhibition at 50 µM [8]: 73%
- CC50 [10]: > 200 µM
- hemolysis at 1 h [11, 17]: 0.3%
- hemolysis at 1 h [11, 18]: 0.1%

Compound: CN(C)[C@@H]1C(O)=C(C(N)=O)C(=O)[C@@]2(O)C(O)=C3C(=O)c4c(O)cccc4[C@@](C)(O)[C@H]3C[C@@H]12 [Tet, tetracycline, reference compound]
- MIC ([1]; ATCC12228, conventional antibiotics used in the hemolysis assay, strain not printed at the place, read-out: MIC): 0.25 µg/mL

Compound: CN[C@H](CC(C)C)C(=O)N[C@H]1C(=O)N[C@@H](CC(N)=O)C(=O)N[C@H]2C(=O)N[C@H]3C(=O)N[C@H](C(=O)N[C@H](C(=O)O)c4cc(O)cc(O)c4-c4cc3ccc4O)[C@H](O)c3ccc(c(Cl)c3)Oc3cc2cc(c3O[C@@H]2O[C@H](CO)[C@@H](O)[C@H](O)[C@H]2O[C@H]2C[C@](C)(N)[C@H](O)[C@H](C)O2)Oc2ccc(cc2Cl)[C@H]1O [Vancomycin, reference compound]
- MIC ([2]; RP62A): 1 µg/mL
- MBC ([7]; RP62A): 4 µg/mL
- Killing of biofilm cells ([12]; concentration increased up to 128 μg/ml): no increased killing; also recorded: almost without effect
